The text below walks through data of PMC8640676 (Journal of Pesticide Science, 2021).

The term AUC(0-t) denotes the area under the concentration-time curve up to a stated or last time point. The Cmax is the maximum level reached in the sampled fluid or tissue.

Series [1] is described as follows: Toxicokinetics in plasma, rat 90-day study. It counts as in vivo. The conditions noted are these: for AUC(0-t) / Cmax: rat, plasma, po.
Series [2] has as its system cryopreserved primary hepatocytes of SD rats. The series is described as follows: Hepatocyte uptake assay. It counts as in vitro ADME, rat. The conditions noted are these: rats vs humans.
Setting [3] is: female, Crl:CD(SD), 19 mg/kg bw/day.
[4] abbreviates: male, Crl:CD(SD), 3 mg/kg bw/day.

For the compound `Cn1c(C(F)(F)F)cc(=O)n(-c2cc(Oc3cccnc3OCC(=O)O)c(Cl)cc2F)c1=O` [S-3100-CA, (3-{2-chloro-4-fluoro-5-[1,2,3,6-tetrahydro-3-methyl-2,6-dioxo-4-(trifluoromethyl)pyrimidin-1-yl]phenoxy}pyridin-2-yloxy)acetic acid], the “AUC0–24 of S-3100-CA at NOAEL, fold change vs. corresponding mouse value” in series [1] (female rats vs female mice) came out at 2.2 fold. Also, the “Cmax of S-3100-CA at NOAEL, fold change vs. corresponding mouse value” in series [1] (female rats vs female mice) is 2.0 fold; in series [1] (male rats vs male mice), 1.6 fold. Further, the AUC(0-t) was 5020 ng·h/mL in series [1] (setting [3]); 879 ng·h/mL in series [1] (female, Crl:CD(SD), 50 ppm); 5020 ng·h/mL in series [1] (female, 300 ppm in diet); 13200 ng·h/mL in series [1] (female, 800 ppm in diet); 467 ng·h/mL in series [1] (setting [4]); 467 ng·h/mL in series [1] (male, Crl:CD(SD), 50 ppm). In series [1] (male, 300 ppm in diet), this compound showed an AUC(0-t) of 4010 ng·h/mL. Besides, the Cmax in series [1] (setting [3]) was determined as 266 ng/mL; in series [1] (female, 50 ppm in diet), 46.5 ng/mL; in series [1] (female, 300 ppm in diet), 266 ng/mL; in series [1] (female, 800 ppm in diet) it was 756 ng/mL; in series [1] (setting [4]) it was 20.7 ng/mL; in series [1] (male, Crl:CD(SD), 50 ppm), 20.7 ng/mL. The same compound had a Cmax in series [1] (male, 300 ppm in diet) of 248 ng/mL. Moreover, the “Hepatocyte uptake, times greater in rats than in humans” value in series [2] was 2 times.
